Laboratory results reported in the NIST ThermoML archive (doi:10.1021/je7002836).

How the values were obtained:
[1] = xn = mol fraction of the nth substance listed; settings: 101 kPa, Liquid
[2] = molar heat capacity at constant pressure; xn = mol fraction of the nth substance listed; settings: 101 kPa, Liquid

CCCC[n+]1cccc(C)c1.F[B-](F)(F)F [1-butyl-3-methylpyridinium tetrafluoroborate] + CCO
Settings | mass density, [1] [kg/m3] | molar heat capacity at constant pressure, [2] [J/K/mol]
293.15 K, x1 = 0.0073 | 800.5 | 113.6
293.15 K, x1 = 0.0126 | 807.8 | 115.2
293.15 K, x1 = 0.0231 | 821.5 | 119.1
293.15 K, x1 = 0.0512 | 855.1 | 129.4
293.15 K, x1 = 0.1003 | 904.1 | 146.4
293.15 K, x1 = 0.2569 | 1010.3 | 190.3
293.15 K, x1 = 0.3847 | 1065.4 | 223.7
293.15 K, x1 = 0.4841 | 1097.1 | –
293.15 K, x1 = 0.5031 | – | 252.6
293.15 K, x1 = 0.5963 | 1124.9 | 276.9
293.15 K, x1 = 0.6919 | – | 301.6
293.15 K, x1 = 0.7107 | 1148 | –
293.15 K, x1 = 0.7784 | – | 324.5
293.15 K, x1 = 0.7966 | 1162.2 | –
293.15 K, x1 = 0.8711 | – | 350
293.15 K, x1 = 0.8923 | – | 355.9
293.15 K, x1 = 0.9514 | 1183.1 | 372.8
293.15 K, x1 = 1 | 1188.6 | 385.8
298.15 K, x1 = 0.0073 | 796.3 | 115.4
298.15 K, x1 = 0.0126 | 803.5 | 117.1
298.15 K, x1 = 0.0231 | 817.3 | 120.9
298.15 K, x1 = 0.0512 | 851 | 131
298.15 K, x1 = 0.1003 | 900.1 | 147.5
298.15 K, x1 = 0.2569 | 1006.4 | 191.3
298.15 K, x1 = 0.3847 | 1061.6 | 224.8
298.15 K, x1 = 0.4841 | 1093.4 | –
298.15 K, x1 = 0.5031 | – | 254.2
298.15 K, x1 = 0.5963 | 1121.3 | 278.5
298.15 K, x1 = 0.6919 | – | 303.4
298.15 K, x1 = 0.7107 | 1144.5 | –
298.15 K, x1 = 0.7784 | – | 326.6
298.15 K, x1 = 0.7966 | 1158.7 | –
298.15 K, x1 = 0.8711 | – | 352.1
298.15 K, x1 = 0.8923 | – | 358.1
298.15 K, x1 = 0.9514 | 1179.6 | 375.1
298.15 K, x1 = 1 | 1185.2 | 387.7
303.15 K, x1 = 0.0073 | 792 | 117.3
303.15 K, x1 = 0.0126 | 799.3 | 119.1
303.15 K, x1 = 0.0231 | 813 | 122.7
303.15 K, x1 = 0.0512 | 846.8 | 132.6
303.15 K, x1 = 0.1003 | 896 | 148.7
303.15 K, x1 = 0.2569 | 1002.6 | 192.4
303.15 K, x1 = 0.3847 | 1057.9 | 226
303.15 K, x1 = 0.4841 | 1089.7 | –
303.15 K, x1 = 0.5031 | – | 255.7
303.15 K, x1 = 0.5963 | 1117.7 | 280.1
303.15 K, x1 = 0.6919 | – | 305.3
303.15 K, x1 = 0.7107 | 1140.9 | –
303.15 K, x1 = 0.7784 | – | 328.9
303.15 K, x1 = 0.7966 | 1155.2 | –
303.15 K, x1 = 0.8711 | – | 354.4
303.15 K, x1 = 0.8923 | – | 360.5
303.15 K, x1 = 0.9514 | 1176.2 | 377.4
303.15 K, x1 = 1 | 1181.7 | 390.1
308.15 K, x1 = 0.0073 | 787.6 | 119.5
308.15 K, x1 = 0.0126 | 794.9 | 121.2
308.15 K, x1 = 0.0231 | 808.8 | 124.7
308.15 K, x1 = 0.0512 | 842.6 | 134.3
308.15 K, x1 = 0.1003 | 891.9 | 150.1
308.15 K, x1 = 0.2569 | 998.7 | 193.6
308.15 K, x1 = 0.3847 | 1054.2 | 227.2
308.15 K, x1 = 0.4841 | 1086.1 | –
308.15 K, x1 = 0.5031 | – | 257.3
308.15 K, x1 = 0.5963 | 1114.2 | 281.8
308.15 K, x1 = 0.6919 | – | 307.3
308.15 K, x1 = 0.7107 | 1137.4 | –
308.15 K, x1 = 0.7784 | – | 331.1
308.15 K, x1 = 0.7966 | 1151.7 | –
308.15 K, x1 = 0.8711 | – | 356.9
308.15 K, x1 = 0.8923 | – | 363
308.15 K, x1 = 0.9514 | 1172.8 | 379.7
308.15 K, x1 = 1 | 1178.3 | 392.8
313.15 K, x1 = 0.0073 | 783.3 | 121.7
313.15 K, x1 = 0.0126 | 790.6 | 123.3
313.15 K, x1 = 0.0231 | 804.5 | 126.7
313.15 K, x1 = 0.0512 | 838.4 | 136
313.15 K, x1 = 0.1003 | 887.8 | 151.6
313.15 K, x1 = 0.2569 | 994.8 | 194.9
313.15 K, x1 = 0.3847 | 1050.4 | 228.5
313.15 K, x1 = 0.4841 | 1082.4 | –
313.15 K, x1 = 0.5031 | – | 258.9
313.15 K, x1 = 0.5963 | 1110.6 | 283.5
313.15 K, x1 = 0.6919 | – | 309.4
313.15 K, x1 = 0.7107 | 1133.9 | –
313.15 K, x1 = 0.7784 | – | 333.5
313.15 K, x1 = 0.7966 | 1148.3 | –
313.15 K, x1 = 0.8711 | – | 359.5
313.15 K, x1 = 0.8923 | – | 365.7
313.15 K, x1 = 0.9514 | 1169.4 | 382
313.15 K, x1 = 1 | 1174.9 | 395.9
318.15 K, x1 = 0.0073 | 778.9 | 124.1
318.15 K, x1 = 0.0126 | 786.2 | 125.6
318.15 K, x1 = 0.0231 | 800.3 | 128.8
318.15 K, x1 = 0.0512 | 834.1 | 137.9
318.15 K, x1 = 0.1003 | 883.7 | 153.2
318.15 K, x1 = 0.2569 | 990.9 | 196.2
318.15 K, x1 = 0.3847 | 1046.7 | 229.8
318.15 K, x1 = 0.4841 | 1078.7 | –
318.15 K, x1 = 0.5031 | – | 260.4
318.15 K, x1 = 0.5963 | 1107.1 | 285.3
318.15 K, x1 = 0.6919 | – | 311.5
318.15 K, x1 = 0.7107 | 1130.4 | –
318.15 K, x1 = 0.7784 | – | 335.9
318.15 K, x1 = 0.7966 | 1144.8 | –
318.15 K, x1 = 0.8711 | – | 362.2
318.15 K, x1 = 0.8923 | – | 368.5
318.15 K, x1 = 0.9514 | 1166 | 384.4
318.15 K, x1 = 1 | 1171.6 | 399.3
